Converted amounts (≈) assume the structure as drawn. Where two headings read alike, the source gives them in different places. Square brackets hold non-standard residues; d marks the D form. Peptide text beside a SMILES is read from it. Sar = CNCC(=O)O

For data set [1], the system named is Caco-2 cell monolayers.
Method: (§1) Compound cellular uptake into and permeability across Caco-2 monolayers was measured.
(§2) Monolayer integrity was monitored using ^14C-mannitol permeability. Mannitol uptake was also studied.
(§3) Uptake and permeability studies were conducted using Transwelle inserts in the apical to basolateral direction, at intervals of 10 sec., 60 sec., and 5 min.
(§4) ^14C-mannitol and ^3H-drugs were quantified by liquid scintillation counting. For uptake studies, at designated time points (10 sec, 60 sec, and 5 min), the donor solution was aspirated off. The cell monolayer was washed twice with ice cold HBSS to remove any residual binding and then dissolved in 1 ml of the cell solubilizing agent, Solvable®. The cell lysate (0.5 ml) was added to 5 ml scintillation cocktail (Econosafe®) and counted on liquid scintillation counter (Beckman LS5801, Columbia, Md.). For permeability studies, 0.5 ml of received solution was added to 5 ml scintillation cocktail (Econosafe®) and counted on liquid scintillation counter.
(§5) Permeability is an absolute measure (units of cm/Sec or velocity) and can be determined even though the absolute drug concentrations were not known.
Data set [2] deals with Caco-2 cell monolayers. This is another data set of the same source.
Method: (§6) Uptake and permeability of each compound was measured in the apical-to-basolateral direction, with and without vehicle.
(§7) Each compound was tritiated. ^14C-mannitol was used as an evaluation of monolayer/cell integrity (i.e. as a low uptake/permeability marker).
(§8) Uptake and Permeability Assessments. Compound cellular uptake into and permeability across Caco-2 monolayers was measured.
(§9) HBSS was used when no pharmaceutical vehicle was present for each of the four compounds. […] Monolayer integrity was monitored using ^14C-mannitol permeability. Mannitol uptake was also studied.
as §3, §4
The next data set can be described thus: in vitro. Particulars: human, Caco-2, Mannitol Permeability with Vehicle. (In general: Caco-2 monolayers are a common model of the intestinal barrier.)
Data set [3] can be described thus: Portal blood and gut mucosa GSH after DMBA. It counts as in vivo, Sprague-Dawley rats. The note with it: 100 mg/kg DMBA, one week after.
Data set [4] has as its system natural killer (NK) cell cytotoxicity. Kind of data set: NK cell cytotoxicity, 51-Chromium release assay with YAC-1. It counts as in vivo, rats. Particulars: only at week 1 and week 11; FIG. 31. On the procedure: Rats were treated as in Example 5.
NK cell cytotoxicity was measured as follows: Aseptically removed spleens were minced using a sterile scalpel, and lymphocytes were teased from the splenic capsule with warm RPMI 1640 (Gibco BRL, Life Technologies Inc., Grand Island, N.Y.). The resulting cells were poured into 50 ml conical tubes, which were filled with ammonium chloride (0.83%) (Sigma Chemical Co., St. Louis, Mo.) to lyse the red cells. The cell solution was then centrifuged for 10 minutes at 1000 rpm. The supernatant was decanted, and the cell pellet was vortexed with RPMI (no GLN) and centrifuged again. Next, the cells were resuspended in approximately 10 ml of RPMI containing 10% fetal bovine serum […] (Gibco BRL, Life Technologies Inc., Grand Island, N.Y.) supplemented with 1% GLN. This cell suspension was placed in Petri dishes and incubated in 6% CO2 at 37° C. for 30 minutes. After incubation to assure adherence of the monocytes, the nonadherent lymphocytes were counted (1:1 with crystal violet stain). Approximately 7×10^6 total cells from each spleen were incubated for 3 days in RPMI containing 10% FBS and recombinant human IL-2 (500 U/ml). […] The calculation of the NK activity is expressed as the following equation: [formula]

For data set [5], the system named is GSH transport in jejunal basolateral membrane vesicles (BLMV). Briefly: [3H]Glutathione uptake in jejunal basolateral membrane vesicles after DMBA. It counts as in vivo, Sprague-Dawley rats. Particulars: 100 mg/kg DMBA single dose; one week after; FIG. 26. On the procedure:
Methods: The transport of GSH in the jejunal basolateral membrane vesicles (BLMV) was investigated in Sprague-Dawley rats treated with a single dose of 100 mg/kg DMBA (n=15) or sesame oil (n=15) as controls. The animals were pair-fed pre-defined chow and were given water ad libitum. All rats were sacrificed one week after the DMBA administration. Jejunal basolateral membrane vesicles (BLMV) were prepared using Percoll Colloidal PVP coated silica differential centrifugation technique. All steps were carried out at 2-4° C. Jejunal mucosal scraping was homogenized in isolation buffer containing 180 mM sucrose/2 mM Tris being adjusted to pH 7.40 by 2 mM Hepes using a Polytron homogenizer (Brinkman, Rexdale, ON), at setting 2 to 6 then 6 to 2, over 55 seconds. The homogenate was centrifuges for 10 minutes at 1000 g. The supernatant was filtered through four layers gauze and recollected. The supernatant containing basolateral membrane material then was centrifuged 15 minutes at 22,000 g. […] Protein concentration was determined by the Bio-Rad protein assay (Bio-Rad Laboratories, Hercules, Calif.).
The uptake of [^3H]Glutathione was measured by a rapid mixing/filtration technique. […] All vials were counted with liquid scintillation system LS 1801 (Beckman coulter, Fullerton, Calif.).

In data set [6] the test system is gut glutathione (GSH) production. Kind of data set: Gut GLN and GSH fluxes in DMBA-treated rats. The note with it: 20 mg DMBA gavage; 1 week after DMBA; FIG. 15. It counts as in vivo, Sprague-Dawley rats. On the procedure: Methods: 80 Sprague-Dawley rats were randomized to 4 groups (n=20/group): DMBA+GLN, DMBA+FA, OIL+GLN, OIL+FA. Rats (age 50 days) were gavaged with a 1-time dose of 20 mg DMBA or oil. Rats were gavaged with AES-14 (1 gm GLN/kg/day) or an isonitrogenous amount of Freamine (FA) from 1 week before till sacrifice at 1 week after DMBA (greatest effect on gut GSH extraction). Arterial and portal blood was taken for GLN and GSH levels, and blood flow measured using 14-C-PAH. Gut GLN and GSH fluxes (uptake or production) were calculated.

Data set [7] relates to Caco-2 cell monolayers. Kind of data set: Caco-2 permeability, apical-to-basolateral. The note with it: Aesgen-14 vehicle vs no vehicle; saturated solutions; 5 minute period; FIGS. 8-11.
Method: as §1, §2, §3, §4, §5
Data set [8] concerns Caco-2 cell monolayers. Kind of data set: Relative cellular uptake into Caco-2 monolayers, vehicle vs non-vehicle. The note with it: saturated solutions; AES-14 vehicle vs HBSS; FIGS. 3-6.
Method: as §6, §7, §8, §9, §3, §4
A further data set has as its system tumor. Particulars: cited from earlier work.
In data set [9] the test system is human gastrointestinal epithelial cell line (CaCo). Briefly: Cellular glutamine uptake in CaCo cells (HPLC). It counts as cell-based. On the procedure: Both samples were allowed to stand for 1 day at room temperature. The supernatant was decanted from the residue and used for the cellular uptake determination.
On Day 1, cells from a human gastrointestinal epithelial cell line (CaCo) were plated at a density of 0.5×10^6 cells per well in a 6-well tissue culture dish.
At time points 0, 10, 20, 40, and 60 seconds the test material was aspirated and the cells washed three times (3×) with chilled (4° C.) phosphate buffered saline (PBS), followed by the addition of 1.0 ml of perchloric acid. Cells were harvested by scraping, then aspiration by pipet into a 1.7 ml tube.
The harvested cells were sonicated for 10 seconds, and 500 μl of sonicated cells were transferred into a 1.7 ml tube. The perchloric acid was neutralized by the addition of 130 μl of 2M KHCO3, and the resulting mixture was frozen overnight at −80° C.
Upon thawing, the sample was centrifuged for 10 minutes at 14,000 rpm and the supernatants were transferred to new 1.7 ml tubes and frozen at −80° C. The resulting clarified samples were thawed and diluted 1:3 with deionized water. […] After incubation for two minutes at room temperature, a 20 μl sample was injected on a Hypersil® C18 Elite 5 μm HPLC column using 70:30 acetonitrile:water as the mobile phase. Glutamine levels, measured as μg/ml, were detected at 340 nm.

The conditions of data set [10]: The Merck Index, cited from earlier work.

Method for in vitro: as §1, §2, §3, §4, §5

Take `Nc1nc2c(ncn2COCCO)c(=O)[nH]1` [acyclovir]: in the data set with Caco-2 cell monolayers [1], the “effect of vehicle on permeability” value is reported as “no effect”.
For orientation: Papp A→B means how fast a substance crosses the layer from the apical side. A lower Papp A→B goes with poor permeation. As to `OC[C@@H](O)[C@@H](O)[C@H](O)[C@H](O)CO` [Mannitol, mannitol], the “effect of vehicle on mannitol relative uptake” value in the data set on Caco-2 cell monolayers [2] is recorded as “no effect”. In “in vitro”, the Papp A→B at 5 min was determined as 0.916 ×10⁻⁶ cm/s. In the data set with Caco-2 cell monolayers [1], the “Mannitol Permeability with Vehicle” value is on record as “Below LOQ”, the “Mannitol Permeability without Vehicle” value is “Below LOQ” and the “effect of vehicle on mannitol permeability” value is reported as “no effect”.
In the case of `Cc1c2ccccc2c(C)c2c1ccc1ccccc12` [DMBA, 7,12-dimethylbenz[a]anthracene], the “decrease of portal blood GSH concentration” value in data set [3] (FIG. 27) was determined as 34%. Also, the “increase of gut mucosa GSH” value in data set [3] (FIG. 28) is listed as “two-fold”. In data set [4], the “NK cell activity vs non-DMBA controls” value is “lower”. Moreover, in data set [5], the “decrease of the rate of total GSH uptake by BLMV vs control group” value was 42%. In data set [6], the “effect on gut GLN metabolism” value was “not affecting” and the “effect on normal gut GSH production (negative flux)” value is listed as “abrogated”.
Take `CN(CC(=O)O)C(=O)CN` [glycylsarcosine] (H-Gly-[Sar]-OH): in the data set with Caco-2 cell monolayers [7], the “effect of vehicle on permeability” value was “no effect”. Besides, in the data set with Caco-2 cell monolayers [8], the “enhancement of cellular drug uptake by vehicle (relative uptake vehicle vs non-vehicle)” value was “about four-fold”.
For the molecule `NC(=O)CC[C@H](N)C(=O)O` [L-glutamine], the “tumor volume loss when glutamine was added to the diet” value with tumor (rats receiving methotrexate, Klimberg 1992) is “nearly doubled”. For the same molecule, in the data set on tumor (rats, glutamine by gavage or as a food additive, within three weeks, Fahr 1994), the “decrease of tumor growth” value is on record as 40%. In addition, the “mean cellular glutamine uptake” value was 3.53 µg/mL in data set [9] (normal cells, incubation time 0 seconds); 10.30 µg/mL in data set [9] (normal cells, incubation time 10 seconds); 2.48 µg/mL in data set [9] (normal cells, incubation time 20 seconds); 3.23 µg/mL in data set [9] (normal cells, incubation time 40 seconds); 4.85 µg/mL in data set [9] (normal cells, incubation time 60 seconds); 1.33 µg/mL in [9] (starved cells (L-glutamine deficient medium), incubation time 0 seconds). The “mean cellular glutamine uptake” value in data set [9] (starved cells, incubation time 10 seconds) turned out to be 1.43 µg/mL; in data set [9] (starved cells, incubation time 20 seconds), 1.49 µg/mL; in data set [9] (starved cells, incubation time 40 seconds) it was 2.23 µg/mL; in [9] (starved cells, incubation time 60 seconds), 49.96 µg/mL. Further, the figures for the solubility in water in [10] (0° C.), in data set [10] (18° C.) and in data set [10] (30° C.) were 18 mg/mL (≈ 123 mM), 26 mg/mL (≈ 178 mM) and 48 mg/mL (≈ 328 mM), respectively. The “enhancement of cellular uptake by vehicle” value with Caco-2 cell monolayers [2] is on record as “enhanced”. Besides, in the data set on Caco-2 cell monolayers [1], the “effect of vehicle on permeability” value was “no effect”.
With `NC(=O)C[C@H](N)C(=O)O` [L-asparagine], in the data set with Caco-2 cell monolayers [2], the “enhancement of cellular drug uptake by vehicle (relative uptake vehicle vs non-vehicle)” value is recorded as “about four-fold”. Besides, in the data set on Caco-2 cell monolayers [1], the “effect of vehicle on permeability” value is “no effect”.

Source of the values: patent publication US20050090451A1, “Treatment of cancer with glutamine” (priority 2002, published 2005).
